Key:
[1] = test system: α-isomaltosylglucosaccharide-forming enzyme; experiment: Action on saccharides (substrates), Enzyme of Strain C9; format: biochemical, Bacillus globisporus C9; design: key: −: it showed no change; +: it showed a slight reduction of the color spot of the substrate and the formation of other reaction product; ++: it showed a high reduction of the color spot of the substrate and the formation of other reaction product; +++: it showed a substantial disappearance of the substrate spot and the formation of other reaction product; details: two units/g substrate, substrate 2% (w/v), 30° C., pH 6.0, 24 hours, TLC
Description: (§1) It was tested whether saccharides can be used as substrates for the α-isomaltosylglucosaccharide-forming enzyme. For the purpose, a solution of maltose, maltotriose, maltotetraose, maltopentaose, maltohexaose, maltoheptaose, isomaltose, isomaltotriose, panose, isopanose, trehalose, kojibiose, nigerose, neotrehalose, cellobiose, gentibiose, maltitol, maltotriitol, lactose, sucrose, erlose, selaginose, maltosyl glucoside, or isomaltosyl glucoside was prepared.
(§2) To each of the above solutions was added two units/g substrate of a purified specimen of α-isomaltosylglucosaccharide-forming enzyme from either Bacillus globisporus C9 obtained by the method in Experiment 4-2, Bacillus globisporus C11 obtained by the method in Experiment 7-2, Bacillus globisporus N75 obtained by the method in Experiment 11-2, or Arthrobacter globiformis A19 obtained by the method in Experiment 15-2, and the resulting each solution was adjusted to give a substrate concentration of 2% (w/v) and incubated at 30° C. and pH 6.0, except for using pH 8.4 for the enzyme from Arthrobacter globiformis A19, for 24 hours. The enzyme solutions before and after the enzymatic reactions were respectively analyzed on TLC disclosed in Experiment 1 to confirm whether the enzymes acted on these substrates.

[2] = test system: α-isomaltosylglucosaccharide-forming enzyme; experiment: Action on saccharides (substrates), Enzyme of Strain C11; format: biochemical, Bacillus globisporus C11; design: key: −: it showed no change; +: it showed a slight reduction of the color spot of the substrate and the formation of other reaction product; ++: it showed a high reduction of the color spot of the substrate and the formation of other reaction product; +++: it showed a substantial disappearance of the substrate spot and the formation of other reaction product; details: two units/g substrate, substrate 2% (w/v), 30° C., pH 6.0, 24 hours, TLC
Description: as §1, §2

[3] = test system: α-isomaltosylglucosaccharide-forming enzyme; experiment: Action on saccharides (substrates), Enzyme of Strain N75; format: biochemical, Bacillus globisporus N75; design: key: −: it showed no change; +: it showed a slight reduction of the color spot of the substrate and the formation of other reaction product; ++: it showed a high reduction of the color spot of the substrate and the formation of other reaction product; +++: it showed a substantial disappearance of the substrate spot and the formation of other reaction product; details: two units/g substrate, substrate 2% (w/v), 30° C., pH 6.0, 24 hours, TLC
Description: as §1, §2

[4] = test system: α-isomaltosylglucosaccharide-forming enzyme; experiment: Action on saccharides (substrates), Enzyme of Strain A19; format: biochemical, Arthrobacter globiformis A19; design: key: −: it showed no change; +: it showed a slight reduction of the color spot of the substrate and the formation of other reaction product; ++: it showed a high reduction of the color spot of the substrate and the formation of other reaction product; +++: it showed a substantial disappearance of the substrate spot and the formation of other reaction product; details: two units/g substrate, substrate 2% (w/v), 30° C., pH 8.4, 24 hours, TLC
Description: as §1, §2

[5] = test system: α-isomaltosylglucosaccharide-forming enzyme; experiment: Transfer-acceptor specificity, Enzyme of Strain C9; format: biochemical, Bacillus globisporus C9; details: acceptor 1.6%, PINE-DEX #100 donor 4%, one unit/g donor, 30° C., pH 6.0, 24 hours
Description: (§3) Using different saccharides, it was tested whether the saccharides were used as transferring-acceptors for the α-isomaltosylglucosaccharide-forming enzyme of the present invention. A solution of D-glucose, D-xylose, L-xylose, D-galactose, D-fructose, D-mannose, D-arabinose, D-fucose, D-psicose, L-sorbose, L-rhamnose, methyl-α-glucopyranoside, methyl-β-glucopyranoside, N-acetyl-glucosamine, sorbitol, trehalose, isomaltose, isomaltotriose, cellobiose, gentibiose, glycerol, maltitol, lactose, sucrose, α-cyclodextrin, β-cyclodextrin, γ-cyclodextrin, or L-ascorbic acid was prepared.
(§4) To each solution with a saccharide concentration of 1.6% was added “PINE-DEX #100”, a partial starch hydrolysate, as a saccharide donor, to give a concentration of 4%, and admixed with one unit/g saccharide donor, d.s.b., of either of purified specimens of α-isomaltosylglucosaccharide-forming enzyme from Bacillus globisporus C9 obtained by the method in Experiment 4-2, Bacillus globisporus C11 obtained by the method in Experiment 7-2, Bacillus globisporus N75 obtained by the method in Experiment 11-2, or Arthrobacter globiformis A19 obtained by the method in Experiment 15-2, and incubated at 30° C. and pH 6.0, except that pH 8.4 was used for the enzyme from Arthrobacter globiformis A19, for 24 hours. The reaction mixtures of the post-enzymatic reactions were analyzed on gas chromatography (abbreviated as “GLC” hereinafter) for monosaccharides and disaccharides as acceptors, and on HPLC for trisaccharides as acceptors to confirm whether these saccharides could be used as their transfer acceptors. In the case of performing GLC, the following apparatuses and conditions are used: GLC apparatus, “GC-16A” commercialized by Shimadzu Corporation, Tokyo, Japan; column, a stainless-steel column, 3 mm in diameter and 2 m in length, packed with 2% “SILICONE OV-17/[…]”, commercialized by GL Sciences Inc., Tokyo, Japan; carrier gas, nitrogen gas at a flow rate of 40 ml/min under temperature conditions of increasing from 160° C. to 320° C. at an increasing temperature rate of 7.5° C./min; and detection, a hydrogen flame ionization detector. In the case of HPLC analysis, the apparatuses and conditions used are: HPLC apparatus, “CCPD” commercialized by Tosoh Corporation, Tokyo, Japan; column, “ODS-AQ-303” commercialized by YMC Co., Ltd., Tokyo, Japan; eluent, water at a flow rate of 0.5 ml/min; and detection, a differential refractometer.

[6] = test system: α-isomaltosylglucosaccharide-forming enzyme; experiment: Transfer-acceptor specificity, Enzyme of Strain C11; format: biochemical, Bacillus globisporus C11; details: acceptor 1.6%, PINE-DEX #100 donor 4%, one unit/g donor, 30° C., pH 6.0, 24 hours
Description: as §3, §4

[7] = test system: α-isomaltosylglucosaccharide-forming enzyme; experiment: Transfer-acceptor specificity, Enzyme of Strain N75; format: biochemical, Bacillus globisporus N75; details: acceptor 1.6%, PINE-DEX #100 donor 4%, one unit/g donor, 30° C., pH 6.0, 24 hours
Description: as §3, §4

[8] = test system: α-isomaltosylglucosaccharide-forming enzyme; experiment: Transfer-acceptor specificity, Enzyme of Strain A19; format: biochemical, Arthrobacter globiformis A19; details: acceptor 1.6%, PINE-DEX #100 donor 4%, one unit/g donor, 30° C., pH 8.4, 24 hours
Description: as §3, §4

| SMILES | Enzymatic action, Enzyme of Strain C9 [1] | Enzymatic action, Enzyme of Strain C11 [2] | Enzymatic action, Enzyme of Strain N75 [3] | Enzymatic action, Enzyme of Strain A19 [4] | Product of transferring reaction, Enzyme of Strain C9 [5] | Product of transferring reaction, Enzyme of Strain C11 [6] | Product of transferring reaction, Enzyme of Strain N75 [7] | Product of transferring reaction, Enzyme of Stain A19 [8] |
| --- | --- | --- | --- | --- | --- | --- | --- | --- |
| O=C[C@H](O)[C@@H](O)[C@H](O[C@@H]1O[C@H](CO)[C@@H](O)[C@H](O)[C@H]1O)[C@H](O)CO [Cellobiose] | − | − | − | − | ++ (a saccharide-transferred product was detected in an amount over ten percent through transfer reaction to acceptor) | ++ (a saccharide-transferred product was detected in an amount over ten percent through transfer reaction to acceptor) | ++ (a saccharide-transferred product was detected in an amount over ten percent through transfer reaction to acceptor) | ++ (a saccharide-transferred product was detected in an amount over ten percent through transfer reaction to acceptor) |
| OC[C@H]1O[C@@H](O[C@H]2[C@H](O)[C@@H](O)C(O)O[C@@H]2CO)[C@H](O)[C@@H](O)[C@H]1O (stereo partly shown) [Lactose] | − | − | − | − | ++ (a saccharide-transferred product was detected in an amount over ten percent through transfer reaction to acceptor) | ++ (a saccharide-transferred product was detected in an amount over ten percent through transfer reaction to acceptor) | ++ (a saccharide-transferred product was detected in an amount over ten percent through transfer reaction to acceptor) | ++ (a saccharide-transferred product was detected in an amount over ten percent through transfer reaction to acceptor) |
| OC[C@H]1O[C@H](OC[C@H]2OC(O)[C@H](O)[C@@H](O)[C@@H]2O)[C@H](O)[C@@H](O)[C@@H]1O (stereo partly shown) [Isomaltose] | − | − | − | − | ++ (a saccharide-transferred product was detected in an amount over ten percent through transfer reaction to acceptor) | ++ (a saccharide-transferred product was detected in an amount over ten percent through transfer reaction to acceptor) | ++ (a saccharide-transferred product was detected in an amount over ten percent through transfer reaction to acceptor) | + (a saccharide-transferred product was detected in an amount over one percent but less than ten percent through transfer reaction to acceptor) |
| OC[C@H]1O[C@@H](OC[C@H]2OC(O)[C@H](O)[C@@H](O)[C@@H]2O)[C@H](O)[C@@H](O)[C@@H]1O (stereo partly shown) [Gentibiose] | − | − | − | − | ++ (a saccharide-transferred product was detected in an amount over ten percent through transfer reaction to acceptor) | ++ (a saccharide-transferred product was detected in an amount over ten percent through transfer reaction to acceptor) | ++ (a saccharide-transferred product was detected in an amount over ten percent through transfer reaction to acceptor) | + (a saccharide-transferred product was detected in an amount over one percent but less than ten percent through transfer reaction to acceptor) |
| OC[C@H]1O[C@H](OC[C@H]2O[C@H](OC[C@H]3OC(O)[C@H](O)[C@@H](O)[C@@H]3O)[C@H](O)[C@@H](O)[C@@H]2O)[C@H](O)[C@@H](O)[C@@H]1O (stereo partly shown) [Isomaltotriose] | − | − | − | − | ++ (a saccharide-transferred product was detected in an amount over ten percent through transfer reaction to acceptor) | ++ (a saccharide-transferred product was detected in an amount over ten percent through transfer reaction to acceptor) | ++ (a saccharide-transferred product was detected in an amount over ten percent through transfer reaction to acceptor) | ∀ (a saccharide-transferred product was detected in an amount less than one percent through transfer reaction to acceptor) |
